Experimental data published in publication PMC7509555, “An In Vitro Study for Evaluating Permeability and Metabolism of Kurarinone” (Evidence-based Complementary and Alternative Medicine : eCAM, 2020).

Legend:
UGT1A6 = target: T1, UGT1A6 (Homo sapiens, UniProt P19224); test: Inhibition of recombinant UGT1A6-catalyzed 4-MU glucuronidation; type: in vitro ADME; conditions: recombinant UGT1A6, pH 7.4, probe 4-MU (110 μM), 100 μM kurarinone, recombinant UGT
T1 construct: purchased BD Gentest Corp. (Woburn, MA, USA)
T1 sequence (P19224 27-532): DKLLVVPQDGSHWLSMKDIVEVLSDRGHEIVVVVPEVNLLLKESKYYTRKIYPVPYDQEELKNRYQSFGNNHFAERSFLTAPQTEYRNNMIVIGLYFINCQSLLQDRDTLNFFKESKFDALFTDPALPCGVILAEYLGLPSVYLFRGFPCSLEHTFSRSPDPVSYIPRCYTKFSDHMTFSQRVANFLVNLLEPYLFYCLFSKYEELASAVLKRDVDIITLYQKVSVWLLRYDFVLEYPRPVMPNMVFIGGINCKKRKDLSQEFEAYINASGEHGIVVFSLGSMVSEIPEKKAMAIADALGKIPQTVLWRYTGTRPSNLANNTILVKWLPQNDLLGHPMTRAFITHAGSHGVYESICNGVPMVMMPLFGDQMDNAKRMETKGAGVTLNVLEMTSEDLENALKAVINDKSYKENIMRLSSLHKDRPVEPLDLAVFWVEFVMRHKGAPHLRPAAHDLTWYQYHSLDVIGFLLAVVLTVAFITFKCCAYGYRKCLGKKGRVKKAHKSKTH
Description: (§1) 4-MU, a nonspecific probe substrate for UGT isoforms, was used to explore the inhibition of UGT isoforms by kurarinone. The mixture (200 μL total volume) contained recombinant UGTs (final concentrations: 0.125, 0.05, 0.025, 0.05, 0.025, 0.05, 0.05, 0.25, 0.05, and 0.2 mg/mL for UGT1A1, UGT1A3, UGT1A6, UGT1A7, UGT1A8, UGT1A9, UGT1A10, UGT2B4, UGT2B7, and UGT2B15, respectively), 5 mM UDPGA, 5 mM MgCl2, 50 mM Tris-HCl buffer (pH 7.4), and 4-MU in the absence or presence of various concentrations of kurarinone. The concentrations of 4-MU were as follows: 110 μM for UGT1A1 and UGT1A6, 1200 μM for UGT1A3 and UGT2B4, 15 μM for UGT1A7, 750 μM for UGT1A8, 30 μM for UGT1A9, 80 μM for UGT1A10, 350 μM for UGT2B7, 250 μM for UGT2B15, and 2000 μM for UGT2B17. Kurarinone was dissolved in methanol, and the final concentration of methanol was 0.5% (v/v). Reactions were initiated by adding UDPGA, and incubations were carried out at 37°C in a shaking waterbath for 60 min. The reactions were terminated by addition of 200 μL of ice-cold acetonitrile containing 7-hydroxycoumarin (100 μM) as the internal standard. The incubation mixture was then centrifuged at 20,000 ×g for 20 min to obtain the supernatant, and an aliquot of supernatant (20 μL) was transferred to an autoinjector vial for HPLC analysis.

[1] = tested on: rat liver microsomes (RLMs); test: Enzyme kinetics of P1 formation from kurarinone in RLMs; type: in vitro ADME
Description: Samples were prepared in a total volume of 200 μL, containing 0.3 mg/mL protein in human liver microsomes or 15 nM protein in recombinant human supersomes, probe substrates or 50 μM kurarinone, 10 mM MgCl2, 10 mM glucose-6-phosphate, and 1 unit/mL of glucose-6-phosphate dehydrogenase. The reactions were activated by adding NADPH following preincubation at 37°C for 5 min. The reactions were maintained at 37°C for 1 h and terminated by adding 200 μL ice-cold acetonitrile. The supernatant (10 μL) collected from the samples that were centrifuged (20,000 g, 20 min, 4°C) was injected into the HPLC system for analysis. Control incubations devoid of NADPH or kurarinone were performed parallelly to ensure that the produced metabolites were NADPH- or kurarinone-dependent.
Various concentrations of kurarinone (1–200 μM) were incubated with RLMs, MLMs, PLMs, RAMs, CYP1A2, and CYP2D6 to estimate kinetic parameters. The rest of the other conditions remained the same as described in Section 2.3. […] The apparent Km and Vmax values were calculated from nonlinear regression analysis of experimental data according to the Michaelis–Menten equation, and the results were represented graphically by Eadie–Hofstee plots. All incubations were carried out as triplicate independent experiments, and kinetic constants were recorded as mean ± SD.

primary rat hepatocytes = conditions: cited from earlier work
UGT1A1 = target: T2, UGT1A1 (Homo sapiens, UniProt P22309); test: Inhibition of recombinant UGT1A1-catalyzed 4-MU glucuronidation; type: in vitro ADME
T2 construct: purchased BD Gentest Corp. (Woburn, MA, USA)
T2 sequence (P22309 26-533): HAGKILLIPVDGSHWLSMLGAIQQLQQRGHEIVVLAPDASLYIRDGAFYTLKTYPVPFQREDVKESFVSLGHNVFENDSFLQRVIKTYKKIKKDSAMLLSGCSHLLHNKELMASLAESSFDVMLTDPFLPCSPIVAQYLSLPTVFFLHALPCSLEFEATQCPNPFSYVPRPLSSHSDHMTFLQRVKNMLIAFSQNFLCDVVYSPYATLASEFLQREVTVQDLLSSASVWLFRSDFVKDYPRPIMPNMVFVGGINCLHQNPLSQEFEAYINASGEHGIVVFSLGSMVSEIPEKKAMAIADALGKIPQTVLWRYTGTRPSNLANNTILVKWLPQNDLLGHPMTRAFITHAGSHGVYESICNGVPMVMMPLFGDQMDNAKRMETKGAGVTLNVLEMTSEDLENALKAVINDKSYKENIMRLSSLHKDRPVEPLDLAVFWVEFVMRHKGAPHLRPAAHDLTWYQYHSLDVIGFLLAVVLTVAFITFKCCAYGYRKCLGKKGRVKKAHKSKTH
Description: as §1

inhibition at 60 min, 100 μM (UGT1A6): > 90%
Vmax of P1 formation [1]: 3.34 ± 0.19 nmol·min^−1·mg^−1 protein
Km ([1]; kurarinone 1–200 μM): 18.1 ± 3.91 µM
inhibition type against UGT1A1 (UGT1A1; Dixon and Lineweaver–Burk plots): noncompetitive
inhibition at 60 min, 100 μM (UGT1A1; human, recombinant UGT1A1, pH 7.4, probe 4-MU (110 μM), 100 μM kurarinone, 4-MU glucuronidation, recombinant UGT): > 90%
IC50 (UGT1A1; recombinant UGT1A1, 4-MU glucuronidation, read-out: IC50 against UGT1A1): 13.6 µM
Ki (UGT1A1; second plot of slopes from Lineweaver–Burk plots): 13 µM
SMILES: C=C(C)[C@H](CC=C(C)C)Cc1c(O)cc(OC)c2c1O[C@H](c1ccc(O)cc1O)CC2=O [Kurarinone]
cytotoxicity (primary rat hepatocytes): remarkable cytotoxicity
